Key:
[1] = system: C57BL/6J mice on an HFD with NAFLD (liver tissue); experiment: Treatment of NAFLD in C57BL/6J mice fed a HFD (Example 8, contemplated); type: in vivo; conditions: C57BL/6J mice on HFD after NAFLD is observed; once daily ip 1, 3 or 10 mg/kg/day for up to 16 weeks (24 weeks if no effect)
Description: Contemplated Experimental Protocol. C57BL/6J mice are placed on an HFD containing 60% fat (by % Kcal) (Diet #D12492, Research Diets, Inc.) for a period of weeks (as determined by the results of Example 6) until development of NAFLD is observed and clearly distinguishable from LFD-fed mice of the same age (between 4-8 weeks). At the time or after NAFLD is observed, once daily ip injections of COB-204, COB-214, COB-152, COB-187, DMSO, or sham are administered. Five mice are then euthanized weekly thereafter to characterize the effects of the COB-204, COB-214, COB-152, COB-187, DMSO, and/or sham on treatment of NAFLD for the period of up to 16 weeks post-initiation of the COB-204, COB-214, COB-152, COB-187, DMSO, and sham administration. The period of time for which treatment is administered will be extended to 24 weeks if no effect of the COB-204, COB-214, COB-152, or COB-187 administration on treatment of NAFLD is observed. The following Table further illustrates the experimental design:
If no effect of the COB-204, COB-214, COB-152, or COB-187 administration on treatment of NAFLD is observed by 16 weeks post-initiation of the COB-204, COB-214, COB-152, COB-187, DMSO, and sham administration, a subsequent study is performed wherein the period of time is extended to 24 weeks of the COB-204, COB-214, COB-152, and COB-187 administration, with 5 mice euthanized weekly from weeks 17-24 as previously described. The following Table further illustrates the experimental design:
NAFLD is evaluated in the liver of the HFD mice macroscopically, microscopically, and molecularly. More specifically, following euthanasia, the liver of each mouse is removed, weighed, and photographs taken thereof for macroscopic and/or gross observation of NAFLD. Then, the liver of each mouse is split in half, wherein one half is used for microscopic analysis of NAFLD and the remaining half is used for molecular analysis of NAFLD (i.e., quantification of triglycerides). Quantification of triglycerides is performed in accordance with the general protocol described in Example 6.

Patients having NAFLD = experiment: Therapeutic use to treat NAFLD in patients (Example 11, contemplated); type: in vivo, human; conditions: once daily oral dose of 3 mg/kg
Description: Contemplated Experimental Protocol. Patients having NAFLD are prescribed COB-204, COB-214, COB-152, or COB-187 to reduce the fat content in their liver. After determination of a baseline level of fat content in each of the patients' livers, each patient takes a once daily oral dose of 3 mg/kg of body weight of the COB-204, COB-214, COB-152, or COB-187, during which fat content in each patient's liver tissue is determined via liver function testing, liver ultrasound, and liver biopsy.

[2] = system: Patients at risk for developing NAFLD; experiment: Therapeutic use to prevent development of NAFLD in patients at risk (Example 10, contemplated); type: in vivo, human; conditions: once daily oral dose of 1 mg/kg, chronically
Description: Contemplated Experimental Protocol. Patients at risk for developing NAFLD are prescribed COB-204, COB-214, COB-152, or COB-187 to prevent excess accumulation of fat. Each patient takes a once daily oral dose of 1 mg/kg of body weight of the COB-204, COB-214, COB-152, or COB-187, chronically, during which fat content in the liver is determined via liver function testing, liver ultrasound, and liver biopsy.

[3] = system: C57BL/6J mice on a HFD (liver tissue); experiment: Prevention of NAFLD in C57BL/6J mice fed a HFD (Example 7): macroscopic observation, hematoxylin and eosin histology, liver triglyceride quantification; type: in vivo; conditions: C57BL/6J mice on HFD; for mean triglyceride concentration (mg/g liver) in liver tissue compared with HFD or HFD + DMSO mice / Percentage of Triglyceride Values (mg/g liver) Below the Mean of the HFD + Sham Group / macroscopic observation of fatty liver disease compared with sham or DMSO injection: 1 mg/kg intraperitoneal once daily for 6 weeks; for mean triglyceride concentration (mg/g liver) in liver tissue compared with HFD or HFD + DMSO mice: comparison of means in FIG. 3; for Percentage of Triglyceride Values (mg/g liver) Below the Mean of the HFD + Sham Group: middle, right and left liver lobes (FIG. 3), 1 mg/kg; for macroscopic observation of fatty liver disease compared with sham or DMSO injection: removed liver tissue; for histological examination of hepatic fat accumulation compared with sham or DMSO injection: 1 mg/kg intraperitoneal once daily, middle lobe of liver, hematoxylin and eosin (FIG. 4)
Description: Quantification of triglycerides of the middle, right, and left lobes was performed to ensure that accumulation (or lack thereof) of triglycerides was similar in each lobe of the liver and to ensure that a representative analysis of triglyceride accumulation in the liver as a whole was assessed. The caudate lobe was excluded since the caudate lobe is very small compared to the middle, right, and left lobes. Triglycerides were quantified in accordance with the following general protocol, based upon the Salmon and Flatt Method of Liver Saponification. 50-100 mg of liver tissue was placed into an Eppendorf tube and weighed. Equal volume per weight of 3 M KOH (in 65% EtOH) was added to the tube and vortexed. The tube was placed at 70° C. for 1 hr to activate digestion. The tubes were vortexed every 15 minutes. The tube was set at room temperature overnight to allow for complete digestion, and was vortexed periodically. The sample was diluted to a final concentration of 100 mg of liver tissue per 600 μl fluid; the sample was diluted by adding 2 M Tris-HCl (un-pHed) to a final concentration of 50 mM. Where a second dilution was required, the sample was diluted using 50 mM Tris-HCl (pH 7.5). Triglycerides-GPO (0.5 mL, liquid; Pointe Scientific Cat. No. T7532-500; Fisher Scientific, Pittsburgh, Pa.) were aliquoted into Eppendorf tubes and warmed in a 37° C. water bath for 5-10 minutes. Glycerol standards (0, 1, 2.5, 5, 7.5 and 10 mmol/L) were made by diluting 10 mmol/L stock of glycerol, such as, e.g., with 50 mM Tris-HCl. 5 μL of the sample and glycerol standards (0, 1, 2.5, 5, 7.5 and 10 mmol/L) were added to 0.5 mL of the triglycerides-GPO, mixed, and incubated at room temperature for 5 minutes. The mixture was then vortexed and added (200 μL) to each well of a 96-well flat-bottom ELISA plate (in triplicate). Absorbance (i.e., optical density) was read at 500 nm. The concentrations of the samples were determined via use of a plot of glycerol standards concentration (mmol/L) with respect to optical density (i.e., O.D.) at 500 nm. The concentration of glycerol (mg glycerol/g tissue) was then calculated and triglyceride concentration was determined, in accordance with calculations known to those of ordinary skill in the art.
Experimental Protocol. 7 week old male C57BL/6J mice (i.e., a mouse model of obesity-induced insulin resistance and Type 2 Diabetes Mellitus) were placed on a HFD (i.e., having a fat content of 60%, a protein content of 20%, and a carbohydrate content of […], N=50). The C57BL/6J mice on the HFD were divided into five groups, wherein one such group was immediately given an intraperitoneal sham injection (i.e., Group 1, serving as a stress control N=10), another group was immediately given an intraperiteonal injection of dimethyl sulfoxide (hereinafter, “DMSO”, i.e., Group 2, serving as a vehicle control, N=10), another group was immediately given an intraperitoneal injection of 1 mg/kg COB-204 (i.e., Group 3, N=10), another group was immediately given an intraperitoneal injection of 1 mg/kg COB-214 (i.e., Group 4, N=10), and another group was immediately given an intraperitoneal injection of 1 mg/kg COB-187 (i.e., Group 5, N=10). Such injections were initiated with the HFD and were given to the C57BL/6J mice on the HFD once daily for a period of 6 weeks. Food intake and total body weight of the C57BL/6J mice were measured weekly.
At 0 weeks, some of the C57BL/6J mice from each of Groups 1-5 were euthanized (N=5). Liver tissue of the C57BL/6J mice euthanized at 0 weeks was harvested and divided into lobes, including the middle lobe, the right lobe, and the left lobe, for morphological (i.e., hematoxylin and eosin staining) and molecular analysis (i.e., quanitification of triglycerides). The caudate lobe was excluded from such division as the caudate lobe is very small compared to the middle, right, and left lobes. […]

| SMILES | fat content in the liver tissue of the mice [1] | fat content in the patient's liver (Patients having NAFLD) | excess accumulation of fat in the liver of patients [2] | mean triglyceride concentration (mg/g liver) in liver tissue compared with HFD or HFD + DMSO mice [3] | Percentage of Triglyceride Values (mg/g liver) Below the Mean of the HFD + Sham Group [3] | macroscopic observation of fatty liver disease compared with sham or DMSO injection [3] | histological examination of hepatic fat accumulation compared with sham or DMSO injection [3] |
| --- | --- | --- | --- | --- | --- | --- | --- |
| OC1(c2ccccc2)CSC(=S)N1Cc1cccnc1 (stereo not drawn) [COB-152] | reduced relative to a baseline level | reduced relative to the baseline level | no excess accumulation of fat | – | – | – | – |
| OC1(c2ccccc2)CSC(=S)N1Cc1ccncc1 (stereo not drawn) [COB-187] | reduced relative to a baseline level | reduced relative to the baseline level | no excess accumulation of fat | lower mean triglyceride concentration | 79% | much less fatty liver disease | much less hepatic fat accumulation |
| COc1ccc(-c2csc(=S)n2Cc2cccnc2)c(OC)c1 [COB-204] | reduced relative to a baseline level | reduced relative to the baseline level | no excess accumulation of fat | no effect | 60% | much less fatty liver disease | much less hepatic fat accumulation |
| CCCn1c(-c2cccnc2)csc1=S [COB-214] | reduced relative to a baseline level | reduced relative to the baseline level | no excess accumulation of fat | lower mean triglyceride concentration | 87% | much less fatty liver disease | much less hepatic fat accumulation |

From patent US10392381B2, “Prevention and treatment of non-alcoholic fatty liver disease” (Ohio University, priority 2014, dated 2019)
